Test results published in publication PMC7578299, “The antiviral effects of baloxavir marboxil against influenza A virus infection in ferrets” (Influenza and Other Respiratory Viruses, 2020).
Several values for one entry are separate records, joined by “and”; a condition that tells them apart may be missing. Equal entries are not always repeated. Where two headings read alike, the source gives them in different places.

Legend:
[1] = Pharmacokinetic analysis in ferrets after a single oral administration of BXM; type: in vivo, ferret; details: for concentration at 24 h: ferret, oral, read-out: C 24 h; for concentration at 24 h / AUC(0-t) / Cmax / Tmax: plasma; for AUC(0-t) / Cmax / Tmax: po
Description: One day prior to administration, group assignment was carried out taking body weight into account. Under isoflurane anesthesia, fasted ferrets (four per group) received BXM (10 or 30 mg/5 mL/kg) suspension orally using an intragastric tube. Blood samples were collected at 0.5, 1, 2, 4, 6, 8, and 24 hours after single oral administration of BXM and centrifuged to obtain plasma. The concentrations of BXA and BXM in plasma were determined by liquid chromatography‐tandem mass spectrometry (LC‐MS/MS). The lower limit of quantification of BXA and BXM in ferret plasma was 0.5 ng/mL. The pharmacokinetic parameters of BXA and BXM were calculated using non‐compartmental analysis module in Phoenix WinNonlin software (version 8.0; Certara LP) (https://onlinehelp.certara.com/phoenix/8.2/topics/nca.htm) based on a non‐compartment model analysis with uniform weighting.

[2] = Stability in plasma, human; type: in vitro ADME; details: for % Residual in plasma: BXM 200 ng/mL, 37°C, mean of duplicate; for % Residual in plasma Individual value: BXM, duplicates
Description: (§1) Approximately 30 mL of blood from Japanese male healthy volunteers was collected and centrifuged to obtain plasma. Blood samples from ferrets, rats, dogs, and monkeys were collected under anesthesia and centrifuged to obtain plasma. BXM was added to reach a final concentration of 200 ng/mL to all pooled plasma samples per species. After incubation for 5, 15, and 30 minutes at 37°C, twofold volume of ice‐cold acetonitrile/methanol (1:1, v/v) was added to the plasma samples to stop further reactions, which were then centrifuged at 1800 g for 10 minutes prior to LC‐MS/MS analysis of BXM in the supernatants.

[3] = Stability in plasma, ferret; type: in vitro ADME; details: for % Residual in plasma: BXM 200 ng/mL, 37°C, mean of duplicate; for % Residual in plasma Individual value: BXM, duplicates
Description: as §1

Stability in plasma, rat = type: in vitro ADME; details: for % Residual in plasma: BXM 200 ng/mL, 37°C, mean of duplicate; for % Residual in plasma Individual value: BXM, duplicates
Description: as §1

Stability in plasma, dog = type: in vitro ADME; details: for % Residual in plasma: BXM 200 ng/mL, 37°C, mean of duplicate; for % Residual in plasma Individual value: BXM, duplicates
Description: as §1

[4] = Stability in plasma, monkey; type: in vitro ADME; details: for % Residual in plasma: BXM 200 ng/mL, 37°C, mean of duplicate; for % Residual in plasma Individual value: BXM, duplicates
Description: as §1

[5] = Metabolic stability in liver microsomes, dog; type: in vitro ADME; details: for % Residual in liver microsome: 0.5 mg/mL, 2 μmol/L, 37°C, mean of duplicates; for % Residual in liver microsome Individual value: duplicates
Description: Liver microsomes were prepared from ferrets, rats, dogs, and monkeys, as previously described. ^28 Human liver microsomes were obtained from Sekisui‐XenoTech, LLC and pooled (n = 15). Metabolic stability of the compounds in liver microsomes was tested in duplicate. Oseltamivir and cefcapene pivoxil were used as reference compounds. Liver microsomes at 0.5 mg/mL concentration (final volume of 0.2 mL) were incubated in Tris‐HCl buffer (pH 7.4), containing 50 mmol/L Tris‐HCl, 150 mmol/L KCl, 10 mmol/L MgCl2. The hydrolysis reaction was initiated by applying the test compound solution (final concentration 2 μmol/L). After incubation for 10, 20, and 30 minutes at 37°C, the hydrolysis was terminated by the addition of twofold volume of ice‐cold acetonitrile/methanol (1:1, v/v). Samples were centrifuged at 3000 rpm for 10 minutes prior to LC‐MS/MS analysis of compounds in the supernatants.

[6] = tested on: Influenza A virus A/Kadoma/3/2006 (H1N1); assay: Experiment 1: infected ferrets, treatment starting at Day 1 p.i. (virus titer in nasal washes, body temperature); type: in vivo, ferret; details: for reduction of virus titers by Day 2: treatment at Day 1 p.i.
[7] = single oral BXM 10 mg/kg, individual ferrets (Ferret-01 to Ferret-04)
[8] = single oral BXM 30 mg/kg, individual ferrets (Ferret-05 to Ferret-08)

Structure (SMILES): COC(=O)OCOc1c2n(ccc1=O)N([C@@H]1c3ccccc3SCc3c1ccc(F)c3F)[C@@H]1COCCN1C2=O [BXM, Baloxavir marboxil]
- concentration at 24 h ([1]; 10 mg/kg, single oral BXM 10 mg/kg, 5% SDS water vehicle, mean of four ferrets): 28.6 ± 30.4 ng/mL
- concentration at 24 h ([1]; 10 mg/kg, single oral BXM 10 mg/kg, mean of four ferrets): 50.1 ± 53.3 nM
- concentration at 24 h ([1]; 30 mg/kg, single oral BXM 30 mg/kg, 5% SDS water vehicle, mean of four ferrets): 36.1 ± 12.3 ng/mL
- concentration at 24 h ([1]; 30 mg/kg, single oral BXM 30 mg/kg, mean of four ferrets): 63.1 ± 21.5 nM
- AUC(0-t) ([1]; 10 mg/kg, single oral BXM 10 mg/kg, 5% SDS water vehicle, mean of four ferrets, read-out: AUC0-24 h): 715 ± 758 ng·h/mL
- Cmax ([1]; 10 mg/kg, single oral BXM 10 mg/kg, 5% SDS water vehicle, mean of four ferrets, read-out: C max): 165 ± 179 ng/mL
- Tmax ([1]; 10 mg/kg, single oral BXM 10 mg/kg, 5% SDS water vehicle, mean of four ferrets, read-out: T max): 1.13 ± 0.63 h
- AUC(0-t) ([1]; 10 mg/kg, single oral BXM 10 mg/kg, mean of four ferrets, read-out: AUC0-24 h): 1.25 ± 1.33 µM·h
- Cmax ([1]; 10 mg/kg, single oral BXM 10 mg/kg, mean of four ferrets, read-out: C max): 289 ± 312 nM
- AUC(0-t) ([1]; 30 mg/kg, single oral BXM 30 mg/kg, 5% SDS water vehicle, mean of four ferrets, read-out: AUC0-24 h): 1260 ± 150 ng·h/mL
- Cmax ([1]; 30 mg/kg, single oral BXM 30 mg/kg, 5% SDS water vehicle, mean of four ferrets, read-out: C max): 298 ± 88 ng/mL
- Tmax ([1]; 30 mg/kg, single oral BXM 30 mg/kg, 5% SDS water vehicle, mean of four ferrets, read-out: T max): 0.875 ± 0.25 h
- AUC(0-t) ([1]; 30 mg/kg, single oral BXM 30 mg/kg, individual ferrets (Ferret-05 to Ferret-08), read-out: AUC0-24hr, individual data): 1450 ng·h/mL
- Cmax ([1]; 30 mg/kg, single oral BXM 30 mg/kg, individual ferrets (Ferret-05 to Ferret-08), read-out: Cmax, individual data): 392 ng/mL
- Tmax ([1]; 30 mg/kg, single oral BXM 30 mg/kg, individual ferrets (Ferret-05 to Ferret-08), read-out: Tmax, individual data): 1 h
- AUC(0-t) ([1]; 30 mg/kg, single oral BXM 30 mg/kg, mean of four ferrets, read-out: AUC0-24 h): 2.21 ± 0.25 µM·h
- Cmax ([1]; 30 mg/kg, single oral BXM 30 mg/kg, mean of four ferrets, read-out: C max): 522 ± 154 nM
- C 24 h ([1]; single oral BXM 10 mg/kg, 5% SDS water vehicle, mean of four ferrets): 28.6 ng/mL
- AUC0-24hr, individual data [1, 7]: 174 ng·h/mL and 539 ng·h/mL and 318 ng·h/mL and 1830 ng·h/mL
- C24hr, individual data [1, 7]: 3.59 ng/mL and 35.0 ng/mL and 6.75 ng/mL and 69.0 ng/mL
- Cmax, individual data [1, 7]: 101 ng/mL and 79.2 ng/mL and 48.6 ng/mL and 431 ng/mL
- Tmax, individual data [1, 7]: 0.500 h and 2.00 h
- C 24 h ([1]; single oral BXM 30 mg/kg, 5% SDS water vehicle, mean of four ferrets): 36.1 ng/mL
- AUC0-24hr, individual data [1, 8]: 1200 ng·h/mL and 1110 ng·h/mL and 1290 ng·h/mL
- C24hr, individual data [1, 8]: 22.7 ng/mL and 48.5 ng/mL and 28.7 ng/mL and 44.3 ng/mL
- Cmax, individual data [1, 8]: 353 ng/mL and 214 ng/mL and 233 ng/mL
- Tmax, individual data [1, 8]: 0.500 h
- % Residual in plasma ([2]; 10 min): 92.3%
- % Residual in plasma ([2]; 20 min): 78.6%
- % Residual in plasma ([2]; 30 min): 63.9%
- % Residual in plasma Individual value ([2]; 10 minutes): 92.7% and 91.8%
- % Residual in plasma Individual value ([2]; 20 minutes): 80.0% and 77.1%
- % Residual in plasma Individual value ([2]; 30 minutes): 65.3% and 62.6%
- % Residual in plasma ([3]; 10 min): 94.7%
- % Residual in plasma ([3]; 20 min): 90.4%
- % Residual in plasma ([3]; 30 min): 77.4%
- % Residual in plasma Individual value ([3]; 10 minutes): 94.0% and 95.4%
- % Residual in plasma Individual value ([3]; 20 minutes): 90.0% and 90.9%
- % Residual in plasma Individual value ([3]; 30 minutes): 77.3% and 77.5%
- % Residual in plasma (Stability in plasma, rat; 10 min): 0.0%
- % Residual in plasma (Stability in plasma, rat; 20 min): 0.0%
- % Residual in plasma (Stability in plasma, rat; 30 min): 0.0%
- % Residual in plasma Individual value (Stability in plasma, rat; 10 minutes): 0.0%
- % Residual in plasma Individual value (Stability in plasma, rat; 20 minutes): 0.0%
- % Residual in plasma Individual value (Stability in plasma, rat; 30 minutes): 0.0%
- % Residual in plasma (Stability in plasma, dog; 10 min): 91.6%
- % Residual in plasma (Stability in plasma, dog; 20 min): 79.7%
- % Residual in plasma (Stability in plasma, dog; 30 min): 75.6%
- % Residual in plasma Individual value (Stability in plasma, dog; 10 minutes): 97.0% and 86.3%
- % Residual in plasma Individual value (Stability in plasma, dog; 20 minutes): 79.0% and 80.5%
- % Residual in plasma Individual value (Stability in plasma, dog; 30 minutes): 74.9% and 76.3%
- % Residual in plasma ([4]; 10 min): 82.9%
- % Residual in plasma ([4]; 20 min): 71.8%
- % Residual in plasma ([4]; 30 min): 55.5%
- % Residual in plasma Individual value ([4]; 10 minutes): 81.5% and 84.4%
- % Residual in plasma Individual value ([4]; 20 minutes): 71.3% and 72.3%
- % Residual in plasma Individual value ([4]; 30 minutes): 56.3% and 54.7%
- % Residual in liver microsome ([5]; 10 min): 0.1%
- % Residual in liver microsome ([5]; 20 min): 0.1%
- % Residual in liver microsome ([5]; 30 min): 0.0%
- % Residual in liver microsome Individual value ([5]; 10 minutes): 0.1%
- % Residual in liver microsome Individual value ([5]; 20 minutes): 0.1%
- % Residual in liver microsome Individual value ([5]; 30 minutes): 0.0% and 0.1%
- reduction of virus titers by Day 2 ([6]; BXM 10 mg/kg twice daily): ≥ 3 log10 of the 50% tissue culture infective doses
- reduction of virus titers by Day 2 ([6]; BXM 30 mg/kg twice daily): ≥ 3 log10 of the 50% tissue culture infective doses
- virus titer in nasal washes ([6]; Day 2 p.i., BXM 30 mg/kg twice daily for 1 day from Day 1 p.i., undetectable level): < 0.5 log10 TCID50/mL
